# According to ChEMBL document CHEMBL5726083, “Perfluorinated cyclopropyl fused 1,3-oxazin-2-amine compounds as beta-secretase inhibitors and methods of use” (2017):
# Target: Cathepsin D (Homo sapiens, UniProt P07339)
# Experiment: In Vitro Enzymatic FRET Assay: Recombinant Cat D was expressed in CHO cells. The assay buffer for CathepsinD is 0.05 M citrate pH 3.5, 10% DMSO final, 5 mM CHAPS. The Cat D enzyme (9 nM) is pre-incubated for one hour with inhibitors, typically in about 1 uL of DMSO according to a serial dilution, is added thereto. The assays are effectively started by the addition of different FRET substrates (20 nM for Cat D) and the combination is incubated for one hour. The FRET assay is terminated with by addition of Tris buffer, which raises the pH to neutrality, and the fluorescence is determined. The FRET substrate is a peptide with commercially available fluorophore and quencher, on opposite sides of the BACE cleavage site. […] Proteolytic cleavage of the FRET substrate releases quenching of fluorescence (Cat D excitation 500 nm and emission 580 nm).
# Format: cell-based
# Cathepsin D, sequence (P07339 65-162 limits assumed): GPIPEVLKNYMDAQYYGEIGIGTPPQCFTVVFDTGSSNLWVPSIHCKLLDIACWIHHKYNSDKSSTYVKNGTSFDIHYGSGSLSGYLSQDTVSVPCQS
# Cathepsin D, sequence (P07339 169-412 limits assumed): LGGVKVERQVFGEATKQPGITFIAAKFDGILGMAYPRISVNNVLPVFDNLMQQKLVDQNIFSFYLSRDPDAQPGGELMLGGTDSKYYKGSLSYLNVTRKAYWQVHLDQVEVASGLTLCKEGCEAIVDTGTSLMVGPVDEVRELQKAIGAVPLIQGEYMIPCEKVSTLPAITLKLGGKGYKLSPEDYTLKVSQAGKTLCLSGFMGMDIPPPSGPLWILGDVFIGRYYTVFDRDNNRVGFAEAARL
row,Compound,IC50
1,Cc1cc(OC(F)F)cnc1C(=O)Nc1ccc(Cl)c(C2(C(F)F)N=C(N)O[C@@H]3C[C@@H]32)c1 (some centres not stated),958 µM
2,NC1=N[C@](CF)(c2cc(NC(=O)c3ccc(Cl)cn3)cc(F)c2F)[C@H]2CC2O1 (mixture of isomers),229 µM
